Experimental data from patent publication US20120270250A1, “TEST SYSTEM FOR MEASURING MEST ACTIVITY AS WELL AS METHODS AND USES INVOLVING THE SAME” (SANOFI, priority 2009, published 2012).

Tests used:
MEST T579B = biological target: T1, MEST T579B (Homo sapiens, UniProt Q5EB52); test: Glycerol 3-phosphate acyl transferase activity, MEST T579B-recombinant Sf9 crude membranes; format: biochemical
T1 construct: T579B=amino acids 2-335 and T580B=amino acids 11-335; made in house; host or cells: Sf9 insect cells (baculovirus, pVL1392); crude total membranes
T1 sequence (Q5EB52 2-335): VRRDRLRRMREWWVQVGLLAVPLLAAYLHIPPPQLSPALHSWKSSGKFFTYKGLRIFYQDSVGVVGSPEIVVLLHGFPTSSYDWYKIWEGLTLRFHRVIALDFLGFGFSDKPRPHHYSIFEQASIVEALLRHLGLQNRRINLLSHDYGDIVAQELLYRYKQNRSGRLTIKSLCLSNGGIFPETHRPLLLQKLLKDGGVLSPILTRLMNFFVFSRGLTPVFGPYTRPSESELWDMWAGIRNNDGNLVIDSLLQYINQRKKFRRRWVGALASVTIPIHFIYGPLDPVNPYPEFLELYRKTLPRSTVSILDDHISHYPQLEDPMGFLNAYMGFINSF
Description: (§1) The assay for determining glycerol 3-phosphate acyl transferase is based on the following principle:
(§2) Glycerol 3-phosphate acyl transferase activity was determined as incorporation of palmitate with palmitoyl CoA as acyl donor and radio-labeled [^3H] glycerol 3-phosphate as acyl acceptor, to obtain radio-labeled palmitoyl glycerol 3-phosphate. Radioactive-labeled product palmitoyl glycerol 3-phosphate was separated from the radio-labeled substrate by addition of a scintillator based on organic solvent in order to determine radioactivity in a suitable counter. After separation of phases, only radio-label in the organic solvent phase, which is saturated with scintillator, is detected, i.e. hydrophobic and amphiphilic substances as radio-labeled palmitoyl glycerol 3-phosphate. Hydrophilic radio-labeled glycerol phosphate, which has not been acylated, remains in the aqueous phase and is, therefore, not counted by the scintillation counter. The low amount of “cross-irradiation” from the aqueous phase to the organic phase was corrected by substracting a blank value of a control (containing all reaction components apart from MEST protein) for all MEST reactions.
(§3) Membranes of insect cells expressing human recombinant MEST protein (as below) in homogenization buffer adjusted to the desired concentration (determination of protein content by BioRad assay)
(§4) 10 μl enzyme solution were incubated with 50 μl reaction solution at 25° C. for 60 min. Incubation was carried out in an Eppendorf Thermomixer comfort with gentle agitation (450 min^−1), wherein the openings of the plate were sealed by a protection film (Whatman Uni Seal 7704-0009). The reaction was terminated by addition of 5 μl 200 mM glycerol 3-phosphate and 200 μl scintillation liquid (beta-plate, #1205-440, Perkin Elmer) and incubation under agitation as above at 25° C. for 15 min. After at least 12 hours of incubation at 25° C. without agitation for separation of the phases, radioactivity (in dpm) was measured in a scintillation counter (Wallac 1450 micro beta).
(§5) The enzyme solution (total membranes of Sf9 insect cells) was produced as follows: Sf9 insect cells were pelleted by centrifugation and frozen in aliquots (about 7-9 g). When needed, pelleted Sf9 insect cells were quickly thawed in a 37° C. water bath and kept on ice until further processing. Thereafter, they were transferred into a 50 ml glass homogenizer containing 10 ml homogenization buffer and, additionally, 0.5 mM DTT for preparing a suspension. Cells were homogenized in a teflon-in-glass homogenizer (10×1500/min at 4° C.). The homogenate was transferred into JA25.5 centrifugation tubes (Beckman #363647), diluted with 10 ml homogenization buffer plus DTT and pelleted by centrifugation (500 g, 5 min, 4° C., refrigerated centrifuge Beckman Avanti JA25I). The supernatant was transferred into ultracentrifugation tubes (Beckman #355618) and centrifugated (100000 g, 60 min, 4° C., Beckman Optima LE-80K). The supernatant was completely removed. The pellet was two times carefully washed with homogenization buffer and then resuspended in homogenization buffer. Enzyme solution was aliquoted, frozen in liquid nitrogen and stored at −80° C.
The experiment was carried out as detailed above. Particularly, crude membranes from insect cells (SF9) transfected to express MEST (T579B) were produced and assayed for glycerol 3-phosphate acyltransferase activity (dpm/test) in the presence of A003564556 or S987600. […]
The experiment was carried out as detailed above. Particularly, crude membranes of non-transfected insect cells (SF9) or insect cells (SF9) transfected to express either MEST (T579B) or GPAT (GPAT1, -3 or -4) were produced and assayed in the presence of 1 mM N-Ethylmaleimide (NEM) for 1 h or at 41° C. for 10 min.

MEST T580B = biological target: T2, MEST T580B (Homo sapiens, UniProt Q5EB52); test: Glycerol 3-phosphate acyl transferase activity, MEST T580B-recombinant Sf9 crude membranes; format: biochemical; conditions: 1 mM NEM for 1 h
T2 construct: T579B=amino acids 2-335 and T580B=amino acids 11-335; made in house; host or cells: Sf9 insect cells (baculovirus, pVL1392); crude total membranes
T2 sequence (Q5EB52 11-335): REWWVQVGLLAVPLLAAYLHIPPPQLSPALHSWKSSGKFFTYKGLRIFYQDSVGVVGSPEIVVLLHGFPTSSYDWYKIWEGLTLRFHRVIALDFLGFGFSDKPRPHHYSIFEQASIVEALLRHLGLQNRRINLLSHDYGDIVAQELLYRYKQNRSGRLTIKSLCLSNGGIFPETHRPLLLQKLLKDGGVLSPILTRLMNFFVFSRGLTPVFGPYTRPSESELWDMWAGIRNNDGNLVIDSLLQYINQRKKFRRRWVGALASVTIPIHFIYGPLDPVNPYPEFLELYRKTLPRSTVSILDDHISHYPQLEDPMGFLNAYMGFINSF
Description: as §1, §2, §3, §4
as §5, with “The supernatant was transferred into ultracentrifugation tubes (Beckman #355618) and centrifugated (100000 g, 60 min, 4° C., Beckman Optima LE-80K). The supernatant was completely removed. The pellet was two times carefully washed with homogenization buffer and then resuspended in homogenization buffer. Enzyme solution was aliquoted, frozen in liquid nitrogen and stored at −80° C.” left out

[1] = test system: endogenous insect cell glycerol 3-phosphate acyltransferase activities; test: Glycerol 3-phosphate acyl transferase activity, non-transfected Sf9 crude membranes; format: biochemical, Sf9 insect cells; conditions: 1 mM NEM for 1 h
Description: as §1, §2, §4
as §5, with “The pellet was two times carefully washed with homogenization buffer and then resuspended in homogenization buffer. Enzyme solution was aliquoted, frozen in liquid nitrogen and stored at −80° C.” left out

[2] = inhibitor 0.3 μM, MEST T579B 10 μg/Test
[3] = inhibitor 1 μM, MEST T579B 10 μg/Test
[4] = inhibitor 3 μM, MEST T579B 10 μg/Test
[5] = inhibitor 10 μM, MEST T579B 10 μg/Test
[6] = inhibitor 30 μM, MEST T579B 10 μg/Test
[7] = inhibitor 100 μM, MEST T579B 10 μg/Test
[8] = inhibitor 200 μM, MEST T579B 10 μg/Test
[9] = 1 mM NEM for 1 h, 10 μg Protein/Test
[10] = 1 mM NEM for 1 h, 30 μg Protein/Test

## O=C(O)CCCCCCCCCCCNC(=O)NC12CC3CC(CC(C3)C1)C2 [A003564556]
MEST T579B; MEST T579B crude membranes
  Inhibition of MEST activity (in words): partially inhibited
MEST T579B; [2]
  Activity (dpm/Test): 905 dpm/Test
  inhibition at 0.3 µM: -6%
MEST T579B; [3]
  Activity (dpm/Test): 1011 dpm/Test
  inhibition at 1 µM: -19%
MEST T579B; [4]
  Activity (dpm/Test): 881 dpm/Test
  inhibition at 3 µM: -4%
MEST T579B; [5]
  Activity (dpm/Test): 845 dpm/Test
  inhibition at 10 µM: 1%
MEST T579B; [6]
  Activity (dpm/Test): 779 dpm/Test
  inhibition at 30 µM: 8%
MEST T579B; [7]
  Activity (dpm/Test): 557 dpm/Test
  inhibition at 100 µM: 34%
MEST T579B; [8]
  Activity (dpm/Test): 458 dpm/Test
  inhibition at 200 µM: 48%
MEST T579B; partial inhibition of glycerol 3-phosphate acyl transferase activity
  IC50: ~200 µM

## CCN1C(=O)C=CC1=O [NEM, N-Ethylmaleimide]
MEST T579B; 1 mM NEM for 1 h
  Inhibition of MEST activity (in words): completely
MEST T579B; [9]
  Activity (dpm/Test): 49 dpm/Test
  inhibition at 1000 µM: 90%
MEST T579B; [10]
  Activity (dpm/Test): 53 dpm/Test
  inhibition at 1000 µM: 94%
MEST T580B; 10 μg Protein/Test
  Activity (dpm/Test): −11 dpm/Test
  inhibition at 1000 µM: 101%
MEST T580B; 30 μg Protein/Test
  Activity (dpm/Test): 31 dpm/Test
  inhibition at 1000 µM: 96%
[1]; 10 μg Protein/Test
  % Inhibition: 95%
  Activity (dpm/Test): 6 dpm/Test
[1]; 30 μg Protein/Test
  % Inhibition: 107%
  Activity (dpm/Test): −12 dpm/Test
